Results: paper doi:10.1101/2021.09.30.462449v1 (biorxiv, 2021)

Experiments:
Assay in all cases: biochemical
Conditions in all cases: read-out: % inhibition mean (Adapta)
CDK4/cyclin D1 = CDK4/cyclin D1 (Homo sapiens, UniProt P11802)
CDK4/cyclin D3 = CDK4/cyclin D3 (Homo sapiens, UniProt P11802)
CDK6/cyclin D1 = CDK6/cyclin D1 (Homo sapiens, UniProt Q00534)
CHUK (IKK alpha) = CHUK (IKK alpha) (Homo sapiens, UniProt O15111)
DAPK1 = DAPK1 (Homo sapiens, UniProt P53355)
GSG2 (Haspin) = GSG2 (Haspin) (Homo sapiens, UniProt Q8TF76)
LRRK2 = LRRK2 (Homo sapiens, UniProt Q5S007)
Sequence of LRRK2 (Q5S007 whole entry): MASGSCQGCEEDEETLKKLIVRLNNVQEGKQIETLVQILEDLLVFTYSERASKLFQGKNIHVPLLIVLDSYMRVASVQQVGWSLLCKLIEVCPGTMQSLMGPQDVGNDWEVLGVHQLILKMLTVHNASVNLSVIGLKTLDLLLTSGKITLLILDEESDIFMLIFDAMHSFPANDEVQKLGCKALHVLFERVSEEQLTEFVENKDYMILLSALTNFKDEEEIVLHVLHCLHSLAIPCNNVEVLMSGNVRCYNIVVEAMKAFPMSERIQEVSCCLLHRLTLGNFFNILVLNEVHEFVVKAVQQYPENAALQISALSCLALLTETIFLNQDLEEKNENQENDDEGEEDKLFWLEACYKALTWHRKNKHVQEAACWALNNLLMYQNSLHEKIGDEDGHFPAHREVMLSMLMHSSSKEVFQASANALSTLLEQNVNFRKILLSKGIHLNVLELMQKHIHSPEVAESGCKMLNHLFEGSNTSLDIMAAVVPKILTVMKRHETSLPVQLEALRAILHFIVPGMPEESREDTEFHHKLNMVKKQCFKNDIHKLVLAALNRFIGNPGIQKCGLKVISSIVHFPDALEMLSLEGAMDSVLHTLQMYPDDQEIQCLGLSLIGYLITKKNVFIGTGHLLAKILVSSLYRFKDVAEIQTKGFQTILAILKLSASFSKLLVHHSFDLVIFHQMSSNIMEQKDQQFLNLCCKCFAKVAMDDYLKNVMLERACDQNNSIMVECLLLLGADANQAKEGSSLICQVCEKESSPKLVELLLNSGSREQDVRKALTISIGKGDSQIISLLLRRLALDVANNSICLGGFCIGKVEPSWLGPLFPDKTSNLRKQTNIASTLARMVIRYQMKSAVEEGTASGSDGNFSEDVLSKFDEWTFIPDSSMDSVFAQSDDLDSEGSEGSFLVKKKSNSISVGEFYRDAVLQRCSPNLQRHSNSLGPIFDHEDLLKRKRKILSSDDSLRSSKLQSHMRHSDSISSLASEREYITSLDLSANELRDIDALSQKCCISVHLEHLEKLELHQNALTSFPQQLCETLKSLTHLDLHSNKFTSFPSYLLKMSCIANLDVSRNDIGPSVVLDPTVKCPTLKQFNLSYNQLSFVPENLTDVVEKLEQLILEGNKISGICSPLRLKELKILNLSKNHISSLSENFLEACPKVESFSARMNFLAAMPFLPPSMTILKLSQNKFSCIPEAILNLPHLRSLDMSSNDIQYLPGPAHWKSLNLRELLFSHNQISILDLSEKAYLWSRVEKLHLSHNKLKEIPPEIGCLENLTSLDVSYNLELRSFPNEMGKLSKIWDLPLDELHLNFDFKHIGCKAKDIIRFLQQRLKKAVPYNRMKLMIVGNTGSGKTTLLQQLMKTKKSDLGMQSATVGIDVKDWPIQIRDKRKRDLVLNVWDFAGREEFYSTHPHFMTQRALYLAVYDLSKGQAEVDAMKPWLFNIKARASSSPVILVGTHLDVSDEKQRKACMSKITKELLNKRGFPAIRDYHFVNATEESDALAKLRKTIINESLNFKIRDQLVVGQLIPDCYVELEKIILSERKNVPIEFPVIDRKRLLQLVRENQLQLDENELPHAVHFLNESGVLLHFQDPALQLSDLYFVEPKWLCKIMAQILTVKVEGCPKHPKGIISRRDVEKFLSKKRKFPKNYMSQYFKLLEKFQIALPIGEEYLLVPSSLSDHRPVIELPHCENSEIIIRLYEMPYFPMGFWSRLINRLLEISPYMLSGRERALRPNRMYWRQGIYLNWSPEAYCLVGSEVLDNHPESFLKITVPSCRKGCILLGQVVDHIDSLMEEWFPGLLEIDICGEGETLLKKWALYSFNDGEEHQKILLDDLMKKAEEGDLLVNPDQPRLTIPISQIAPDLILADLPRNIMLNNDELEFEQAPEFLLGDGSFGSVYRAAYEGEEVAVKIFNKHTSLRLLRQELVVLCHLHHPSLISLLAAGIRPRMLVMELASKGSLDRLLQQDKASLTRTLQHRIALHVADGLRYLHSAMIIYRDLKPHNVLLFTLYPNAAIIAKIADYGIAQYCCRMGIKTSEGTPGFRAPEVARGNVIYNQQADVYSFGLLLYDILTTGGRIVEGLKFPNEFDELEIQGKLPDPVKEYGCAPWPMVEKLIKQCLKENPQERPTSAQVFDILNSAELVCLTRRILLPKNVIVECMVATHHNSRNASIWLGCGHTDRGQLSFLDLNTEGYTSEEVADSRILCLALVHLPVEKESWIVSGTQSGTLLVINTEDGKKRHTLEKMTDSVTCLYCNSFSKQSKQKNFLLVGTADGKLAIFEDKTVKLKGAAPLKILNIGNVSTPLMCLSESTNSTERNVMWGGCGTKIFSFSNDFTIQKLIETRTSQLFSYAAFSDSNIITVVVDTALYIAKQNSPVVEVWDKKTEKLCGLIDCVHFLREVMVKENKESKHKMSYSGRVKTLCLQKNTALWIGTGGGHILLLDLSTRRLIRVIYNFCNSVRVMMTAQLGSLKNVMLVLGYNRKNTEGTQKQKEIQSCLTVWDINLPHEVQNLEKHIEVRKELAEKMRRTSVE

LRRK2 G2019S = LRRK2 G2019S (Homo sapiens, UniProt Q5S007, G2019S)
Sequence of LRRK2 G2019S (Q5S007 whole entry G2019S): as the sequence (Q5S007 whole entry) above, with G2019S counted along it

LRRK2 G2019S FL = LRRK2 G2019S FL (Homo sapiens, UniProt Q5S007, G2019S)
Sequence of LRRK2 G2019S FL (Q5S007 whole entry G2019S): as the sequence (Q5S007 whole entry) above, with G2019S counted along it

LRRK2 I2020T = LRRK2 I2020T (Homo sapiens, UniProt Q5S007, I2020T)
Sequence of LRRK2 I2020T (Q5S007 whole entry I2020T): as the sequence (Q5S007 whole entry) above, with I2020T counted along it

LRRK2 R1441C = LRRK2 R1441C (Homo sapiens, UniProt Q5S007, R1441C)
Sequence of LRRK2 R1441C (Q5S007 whole entry R1441C): as the sequence (Q5S007 whole entry) above, with R1441C counted along it

NUAK1 (ARK5) = NUAK1 (ARK5) (Homo sapiens, UniProt O60285)
PI4K2A (PI4K2 alpha) = PI4K2A (PI4K2 alpha) (Homo sapiens, UniProt Q9BTU6)
PI4K2B (PI4K2 beta) = PI4K2B (PI4K2 beta) (Homo sapiens, UniProt Q8TCG2)
PI4KA (PI4K alpha) = PI4KA (PI4K alpha) (Homo sapiens, UniProt P42356)
PI4KB (PI4K beta) = PI4KB (PI4K beta) (Homo sapiens, UniProt Q9UBF8)
PIK3C2A (PI3K-C2 alpha) = PIK3C2A (PI3K-C2 alpha) (Homo sapiens, UniProt O00443)
Sequence of PIK3C2A (PI3K-C2 alpha) (O00443 whole entry): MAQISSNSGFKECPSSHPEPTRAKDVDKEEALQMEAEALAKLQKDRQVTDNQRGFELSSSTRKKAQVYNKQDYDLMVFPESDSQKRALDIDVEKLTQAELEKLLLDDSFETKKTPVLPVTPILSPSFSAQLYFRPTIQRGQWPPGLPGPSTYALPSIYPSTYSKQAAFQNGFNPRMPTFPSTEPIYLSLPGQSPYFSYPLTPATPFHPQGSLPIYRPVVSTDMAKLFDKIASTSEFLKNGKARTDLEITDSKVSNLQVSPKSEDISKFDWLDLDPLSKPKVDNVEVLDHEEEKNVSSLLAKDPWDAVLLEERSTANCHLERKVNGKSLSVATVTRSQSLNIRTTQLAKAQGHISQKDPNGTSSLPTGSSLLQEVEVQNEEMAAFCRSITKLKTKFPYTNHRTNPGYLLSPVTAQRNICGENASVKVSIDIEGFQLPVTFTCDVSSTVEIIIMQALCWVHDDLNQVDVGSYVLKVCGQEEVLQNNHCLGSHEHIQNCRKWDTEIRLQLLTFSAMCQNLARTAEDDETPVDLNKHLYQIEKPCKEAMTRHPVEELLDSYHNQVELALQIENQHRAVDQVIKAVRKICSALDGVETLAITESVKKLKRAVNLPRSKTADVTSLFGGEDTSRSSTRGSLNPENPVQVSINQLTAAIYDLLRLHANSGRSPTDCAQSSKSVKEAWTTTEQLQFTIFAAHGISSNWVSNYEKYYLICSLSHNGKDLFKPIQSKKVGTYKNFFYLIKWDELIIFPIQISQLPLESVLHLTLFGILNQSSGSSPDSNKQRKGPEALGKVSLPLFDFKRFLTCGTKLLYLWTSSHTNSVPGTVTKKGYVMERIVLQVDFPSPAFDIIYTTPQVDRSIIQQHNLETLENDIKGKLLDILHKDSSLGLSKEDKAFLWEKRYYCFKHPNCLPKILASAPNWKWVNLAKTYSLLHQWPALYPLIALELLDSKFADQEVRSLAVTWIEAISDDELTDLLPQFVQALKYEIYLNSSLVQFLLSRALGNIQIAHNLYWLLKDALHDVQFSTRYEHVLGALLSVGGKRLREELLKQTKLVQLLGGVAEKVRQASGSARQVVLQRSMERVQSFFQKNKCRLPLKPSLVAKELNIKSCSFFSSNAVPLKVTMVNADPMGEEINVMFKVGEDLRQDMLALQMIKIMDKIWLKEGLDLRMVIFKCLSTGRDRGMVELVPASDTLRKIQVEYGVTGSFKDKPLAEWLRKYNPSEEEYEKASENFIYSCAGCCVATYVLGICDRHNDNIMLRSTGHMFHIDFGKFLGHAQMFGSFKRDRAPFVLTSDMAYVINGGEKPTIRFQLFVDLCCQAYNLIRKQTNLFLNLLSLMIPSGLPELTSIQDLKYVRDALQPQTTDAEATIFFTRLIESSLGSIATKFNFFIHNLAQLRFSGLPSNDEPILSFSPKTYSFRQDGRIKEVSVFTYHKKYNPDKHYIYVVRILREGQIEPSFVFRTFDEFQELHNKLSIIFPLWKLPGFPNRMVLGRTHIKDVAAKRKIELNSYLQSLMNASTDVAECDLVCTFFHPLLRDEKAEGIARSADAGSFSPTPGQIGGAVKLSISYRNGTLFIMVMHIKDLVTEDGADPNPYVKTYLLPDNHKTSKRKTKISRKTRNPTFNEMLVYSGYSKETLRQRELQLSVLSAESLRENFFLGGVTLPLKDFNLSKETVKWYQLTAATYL

PIK3C2B (PI3K-C2 beta) = PIK3C2B (PI3K-C2 beta) (Homo sapiens, UniProt O00750)
PIK3C3 (hVPS34) = PIK3C3 (hVPS34) (Homo sapiens, UniProt Q8NEB9)
[1] = target: PIK3CA/PIK3R3 (p110 alpha/p55 gamma) (Homo sapiens, UniProt P42336)
[2] = target: PIK3CB/PIK3R2 (p110 beta/p85 beta) (Homo sapiens, UniProt P42338)
PIK3CG (p110 gamma) = PIK3CG (p110 gamma) (Homo sapiens, UniProt P48736)
PIP4K2A = PIP4K2A (Homo sapiens, UniProt P48426)
PIP5K1A = PIP5K1A (Homo sapiens, UniProt Q99755)
PIP5K1B = PIP5K1B (Homo sapiens, UniProt O14986)
PIP5K1C = PIP5K1C (Homo sapiens, UniProt O60331)
Sequence of PIP5K1C (O60331 whole entry): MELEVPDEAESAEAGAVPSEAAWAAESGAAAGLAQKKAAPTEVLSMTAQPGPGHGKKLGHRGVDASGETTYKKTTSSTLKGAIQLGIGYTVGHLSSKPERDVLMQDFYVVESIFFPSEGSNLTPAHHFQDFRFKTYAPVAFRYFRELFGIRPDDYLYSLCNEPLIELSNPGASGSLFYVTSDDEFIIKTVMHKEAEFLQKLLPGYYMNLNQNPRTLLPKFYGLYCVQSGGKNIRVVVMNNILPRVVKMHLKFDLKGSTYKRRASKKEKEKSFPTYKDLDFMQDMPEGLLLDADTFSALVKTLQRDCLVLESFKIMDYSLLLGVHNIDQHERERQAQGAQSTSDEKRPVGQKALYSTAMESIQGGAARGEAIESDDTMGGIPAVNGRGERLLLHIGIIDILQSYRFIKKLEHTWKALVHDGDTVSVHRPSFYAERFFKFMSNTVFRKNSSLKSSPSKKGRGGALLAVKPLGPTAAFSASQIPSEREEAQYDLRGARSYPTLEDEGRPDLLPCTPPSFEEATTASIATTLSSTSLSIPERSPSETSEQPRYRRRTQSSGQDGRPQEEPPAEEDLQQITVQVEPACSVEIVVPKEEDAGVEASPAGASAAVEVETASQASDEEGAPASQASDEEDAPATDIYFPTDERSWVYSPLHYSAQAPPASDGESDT

SPHK1 = SPHK1 (Homo sapiens, UniProt Q9NYA1)
SPHK2 = SPHK2 (Homo sapiens, UniProt Q9NRA0)

COc1ccc2nc3cc(Cl)ccc3c(Nc3cc(CN4CCCC4)c(O)c(CN4CCCC4)c3)c2n1 [Pyronaridine, 4-[(7-Chloro-2-methoxybenzo[b][1,5]naphthyridin-10-yl)amino]-2,6-bis(1-pyrrolidinylmethyl)phenol phosphate (1:4)]
inhibition at 1 µM (CDK4/cyclin D1): 1%
inhibition at 1 µM (CDK4/cyclin D3): -6%
inhibition at 1 µM (CDK6/cyclin D1): 1%
inhibition at 1 µM (CHUK (IKK alpha)): 0%
inhibition at 1 µM (DAPK1): 11%
inhibition at 1 µM (GSG2 (Haspin)): 9%
inhibition at 1 µM (LRRK2): -2%
inhibition at 1 µM (LRRK2 G2019S): 4%
inhibition at 1 µM (LRRK2 G2019S FL): -10%
inhibition at 1 µM (LRRK2 I2020T): -15%
inhibition at 1 µM (LRRK2 R1441C): -7%
inhibition at 1 µM (NUAK1 (ARK5)): 11%
inhibition at 1 µM (PI4K2A (PI4K2 alpha)): 4%
inhibition at 1 µM (PI4K2B (PI4K2 beta)): 2%
inhibition at 1 µM (PI4KA (PI4K alpha)): 0%
inhibition at 1 µM (PI4KB (PI4K beta)): 5%
inhibition at 1 µM (PIK3C2A (PI3K-C2 alpha)): -1%
inhibition at 1 µM (PIK3C2B (PI3K-C2 beta)): -5%
inhibition at 1 µM (PIK3C3 (hVPS34)): -4%
inhibition at 1 µM [1]: 1%
inhibition at 1 µM [2]: -2%
inhibition at 1 µM (PIK3CG (p110 gamma)): 2%
inhibition at 1 µM (PIP4K2A): 15%
inhibition at 1 µM (PIP5K1A): -6%
inhibition at 1 µM (PIP5K1B): -11%
inhibition at 1 µM (PIP5K1C): -3%
inhibition at 1 µM (SPHK1): 10%
inhibition at 1 µM (SPHK2): -5%
